Assay results: paper PMC10099666, “Structure Elucidation, Total Synthesis, Antibacterial In Vivo Efficacy and Biosynthesis Proposal of Myxobacterial Corramycin” (Angewandte Chemie (International Ed. in English), 2022)
*1 amine or outer side, *2 acyl side, *3 side chain or, on linkers, in order; H or OH if unused. Where a SMILES comes first, the peptide text is derived from it. [ ]: non-standard residue; d: D form. The star is where a group is joined. Ava(2S,3R-(OH)2,4S-OMe) = CO[C@@H](CN[*:1])[C@H](O)[C@H](O)C(=O)[*:2]; dHis(βS-OH,π-Me) = Cn1cncc1[C@@H](O)[C@@H](N)C(=O)O; Butanoyl(2R-OH,3S-OH) = C[C@H](O)[C@@H](O)C(=O)*; Val(3-OH) = CC(C)(O)[C@H](N)C(=O)O; NMeF = CN[C@@H](Cc1ccccc1)C(=O)O

What was measured:
[1] = tested on: mice infected with E. coli ATCC35218; assay type: in vivo; conditions: i.v. 20 mg kg^−1 Corramycin in E. coli mouse infection model
Protocol: As bacterial resistance development in minimal media is thought to be more mimetic to an actual infection in vivo, we decided to test the in vivo efficacy of Corramycin in infected mice, despite the poor FoR experiment results in the rich medium. The mice were first infected intraperitoneally with E. coli ATCC35218 and subsequently treated with different doses of Corramycin ranging from a total of 10 to 30 mg per kg body weight divided into two doses, 1 hour and 3 hours after infection.
Figure 4 In vivo antibacterial activity of Corramycin in infected mice. A) Colony forming unit (CFU) load of E. coli ATCC35218 in blood 4 hours post infection with 2.10^7 CFU. 5 mice per dose were used. […]; Tienam: Imipenem/Cilastatin treatment (positive control, dark grey bar); Corramycin treatment with different doses (light blue, blue and dark blue bars). B) Survival rate [in %] of 10 mice per dose 3, 6, 24, 48, 72 and 96 hours post infection.
13.2 Complementation of SbmA and YejEF in the E. coli deletion mutant […]
14.1 Infection of the test animals and treatment with Corramycin in vivo For the in vivo infection and antibiotic treatment experiments a total of 75 male Swiss albino mice, divided into five groups with 15 animals, were used. Before infecting the test animals, the weight of each animal was determined (Suppl. Raw Data 1). […]

[2] = assay type: in vivo; conditions: single i.v. bolus 30 mg kg-1, male Swiss mice, LC/MS-MS, three animals per sampling time
Protocol: However, despite this rapid elimination, the antibacterial effect was strong enough in the animals to achieve survival after a single day of treatment.
Figure S 71. A) Blood bacteremia experiment. E. coli ATCC35218 CFU load after treatment of infected mice with 10 mg kg-1, 20 mg kg-1 or 30 mg kg-1 Corramycin. B) Survival of the E. coli ATCC35218 infected mice in %, after one day of treatment with either 0.9 % NaCl (negative control), Tienam (15 mg kg-1 Imipenem; positive control) or Corramycin in three different doses (10 mg kg-1, 20 mg kg-1 or 30 mg kg-1).
14.2 Corramycin elimination experiment
Native Corramycin systemic exposure was determined following a single intravenous (30 mg kg-1 expressed as active compound) bolus administration to male Swiss mice. […]
Lung, brain, kidney, heart and liver were collected at each sampling time (5 min, 0.5, 1, 2, 4, 6, 8 and 24 h post administration) pooled per sampling time, weighed and frozen at -20 °C until analysis. Native Corramycin was quantified in the plasma and tissues using an exploratory LC/MS-MS assay method in Early Bioanalysis Group of Toulouse (Montpellier DSAR Operational Center), France. […] The pharmacokinetic parameters were calculated from the arithmetic mean of the plasma concentrations or the tissue concentrations (lung, brain, kidney, heart and liver) using the program WinNonLin 5.2, non-compartmental models 200 and 201. […]

SMILES: CO[C@@H](CNC(=O)[C@H](NC(=O)[C@H](O)[C@H](C)O)[C@H](O)c1cncn1C)[C@H](O)[C@H](O)C(=O)N(C)[C@@H](Cc1ccccc1)C(=O)NCC(=O)N[C@H](C(=O)N[C@@H](CO)C(=O)N[C@H](C(=O)N[C@@H](CC(C)C)C(=O)N[C@@H](CO)C(=O)O)C(C)(C)O)C(C)(C)O [Corramycin] ({Butanoyl(2R-OH,3S-OH)}-[dHis(βS-OH,π-Me)][Ava(2S,3R-(OH)2,4S-OMe)][NMeF]G[Val(3-OH)]S[Val(3-OH)]LS-OH)
- Toxic side effects in mice [1]: without toxic side effects
- Time of plasma concentration above the MIC after i.v. administration [2]: less than 30 minutes
